Experimental data taken from the supplement of paper PMC10331698.
± gives the standard deviation of the averaged measurements.

Tests used:
Assay in all cases: level (log10 ratio to DMSO vehicle control); higher = higher biomarker level / cell amount than vehicle control
Conditions in all cases: in DMSO
[1] = compound: FC(F)C(F)(F)COCC1CO1 [((2,2,3,3-Tetrafluoropropoxy)methyl)oxirane]
Experimental: (§1)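 BioMAP Diversity Plus panel of 12 human primary cell co-culture systems (3C, 4H, LPS, SAg, BT, BF4T, BE3C, CASM3C, HDF3CGF, KF3CT, MyoF, Mphg). Compounds were added 1 h before stimulation and left for 24 h (MyoF 48 h; BT 72 h for soluble read-outs or 6 d for IgG). Biomarkers were read by ELISA, cytotoxicity by SRB, PBMC viability and proliferation by Alamar Blue. Each well value was divided by the mean of 8 DMSO control wells on the same plate and log10 transformed; duplicate blinded samples were tested at 4 concentrations.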

[2] = compound: C=CC(F)(F)C(F)(F)C(F)(F)C(F)(F)C(F)(F)C(F)(F)C(F)(F)C(F)(F)C=C [1,8-Divinylperfluorooctane]
Experimental: as §1

Heptafluorobutyramide = compound: NC(=O)C(F)(F)C(F)(F)C(F)(F)F [Heptafluorobutyramide]
Experimental: as §1

[3] = compound: O=C(O)C(F)(F)OC(F)(F)C(F)(F)OC(F)(F)F [Perfluoro-3,6-dioxaheptanoic acid]
Experimental: as §1

[4] = compound: C=C(C)C(=O)OCCC(F)(F)C(F)(F)C(F)(F)C(F)(F)C(F)(C(F)(F)F)C(F)(F)F [(Perfluoro-5-methylhexyl)ethyl 2-methylprop-2-enoate]
Experimental: as §1

Pentafluoropropionamide = compound: NC(=O)C(F)(F)C(F)(F)F [Pentafluoropropionamide]
Experimental: as §1

[5] = compound: NCC(F)(F)C(F)(F)C(F)(F)C(F)(F)C(F)(F)C(F)(F)C(F)(F)F [1H,1H-Perfluorooctylamine]
Experimental: as §1

Row | Test System | level (log10) ([1]; 6700 nM) | level (log10) ([1]; 20000 nM) | level (log10) ([1]; 60000 nM) | level (log10) ([2]; 6700 nM) | level (log10) ([2]; 20000 nM) | level (log10) (Heptafluorobutyramide; 6700 nM) | level (log10) (Heptafluorobutyramide; 20000 nM) | level (log10) (Heptafluorobutyramide; 60000 nM) | level (log10) ([3]; 6700 nM) | level (log10) ([3]; 20000 nM) | level (log10) ([3]; 60000 nM) | level (log10) ([4]; 6700 nM) | level (log10) ([4]; 20000 nM) | level (log10) (Pentafluoropropionamide; 6700 nM) | level (log10) (Pentafluoropropionamide; 20000 nM) | level (log10) (Pentafluoropropionamide; 60000 nM) | level (log10) ([5]; 6700 nM) | level (log10) ([5]; 20000 nM) | level (log10) ([5]; 60000 nM)
1 | CASM3C:PAI-I | -0.0035 ± 0.0021 | -0.001 ± 0.011 | 0.0065 ± 0.011 | -0.0015 ± 0.00071 | 0.004 ± 0.0028 | -0.0045 ± 0.0021 | -0.0045 ± 0.012 | 0.0105 ± 0.0035 | -0.004 ± 0.0099 | -0.013 ± 0.024 | -0.0105 ± 0.018 | -0.004 ± 0.0014 | 0.002 ± 0.0014 | -0.009 ± 0.0099 | -0.007 ± 0.014 | 0.0005 ± 0.0064 | -0.0055 ± 0.012 | 0.0025 ± 0.0064 | -0.0015 ± 0.005
2 | HDF3CGF:TIMP-1 | 0.0075 ± 0.023 | 0.002 ± 0.011 | 0 ± 0.055 | 0.014 ± 0.016 | 0.008 ± 0.017 | 0.002 ± 0.017 | -0.017 ± 0.051 | -0.001 ± 0.0042 | -0.0265 ± 0.029 | -0.012 ± 0.052 | -0.0655 ± 0.074 | -0.035 ± 0.0071 | -0.0345 ± 0.0078 | -0.0265 ± 0.0092 | -0.01 ± 0.018 | 0.0045 ± 0.032 | -0.0265 ± 0.077 | -0.0335 ± 0.036 | -0.0405 ± 0.036
3 | lMphg:IL-1alpha | -0.004 ± 0.017 | -0.039 ± 0.035 | -0.0235 ± 0.033 | 0.003 ± 0.027 | 0.046 ± 0.034 | -0.034 ± 0.021 | -0.0015 ± 0.018 | 0.0475 ± 0.053 | -0.0025 ± 0.046 | 0.007 ± 0.035 | -0.005 ± 0.027 | 0.016 ± 0.018 | 0.0385 ± 0.026 | -0.0005 ± 0.016 | -0.0055 ± 0.0092 | 0.0355 ± 0.083 | -0.005 ± 0.016 | -0.0045 ± 0.013 | 0.0045 ± 0.0092
4 | MyoF:alpha-SM Actin | -0.0185 ± 0.019 | 0.0015 ± 0.022 | -0.0075 ± 0.03 | -0.016 ± 0.0042 | -0.0155 ± 0.028 | 0.0105 ± 0.033 | -0.004 ± 0.033 | 0.0015 ± 0.018 | -0.013 ± 0.0071 | -0.027 ± 0.034 | -0.0095 ± 0.018 | -0.018 ± 0.037 | -0.0255 ± 0.04 | -0.007 ± 0.02 | -0.0135 ± 0.019 | -0.0195 ± 0.018 | -0.017 ± 0.075 | 0.0285 ± 0.0078 | 0.042
5 | HDF3CGF:TIMP-2 | -0.018 ± 0.0057 | -0.008 ± 0.0071 | -0.0275 ± 0.0078 | 0.025 ± 0.013 | -0.0115 ± 0.012 | -0.0195 ± 0.025 | -0.0065 ± 0.033 | -0.009 ± 0.071 | -0.018 ± 0.062 | 0.003 ± 0.047 | 0.008 ± 0.045 | 0.0075 ± 0.026 | -0.0295 ± 0.019 | -0.0185 ± 0.026 | 0.008 ± 0.0057 | 0.033 ± 0.013 | -0.03 ± 0.059 | -0.013 ± 0.052 | -0.0245 ± 0.016
6 | HDF3CGF:CD54/ICAM-1 | 0.001 ± 0.013 | 0.006 ± 0.0014 | -0.007 ± 0.018 | 0.003 ± 0.028 | 0.0475 ± 0.028 | -0.0045 ± 0.021 | 0.0035 ± 0.0092 | -0.001 ± 0.0099 | 0.002 ± 0.0014 | -0.003 ± 0.0028 | -0.008 ± 0.014 | 0.0005 ± 0.016 | -0.0045 ± 0.026 | -0.01 ± 0.052 | 0.017 ± 0.024 | -0.0025 ± 0.0064 | -0.003 ± 0.013 | -0.0055 ± 0.011 | -0.0095 ± 0.0078
7 | CASM3C:CCL2/MCP-1 | -0.001 ± 0.0028 | -0.0105 ± 0.012 | 0.021 ± 0.075 | -0.0225 ± 0.0078 | 0.002 ± 0.014 | -0.004 ± 0.0057 | -0.0145 ± 0.0021 | 0.015 ± 0.037 | -0.0445 ± 0.09 | -0.0325 ± 0.067 | -0.039 ± 0.095 | 0.002 ± 0.023 | 0.0105 ± 0.005 | -0.003 ± 0.021 | -0.01 ± 0.0014 | 0.0075 ± 0.013 | -0.0145 ± 0.044 | -0.0245 ± 0.0092 | 0.009 ± 0.04
8 | MyoF:Collagen IV | -0.0035 ± 0.013 | -0.0065 ± 0.016 | 0.0065 ± 0.025 | -0.023 ± 0.0085 | 0.0115 ± 0.044 | -0.0185 ± 0.019 | -0.01 ± 0.0028 | 0.0275 ± 0.023 | -0.011 ± 0.0085 | 0.0045 ± 0.013 | 0.0015 ± 0.021 | 0.025 ± 0.02 | 0.058 ± 0.1 | -0.0295 ± 0.03 | -0.0275 ± 0.025 | -0.007 ± 0.051 | -0.0035 ± 0.018 | -0.009 ± 0.016 | -0.0055 ± 0.0035
9 | MyoF:Collagen I | 0.01 ± 0.0014 | -0.005 ± 0.016 | 0.0155 ± 0.023 | -0.0145 ± 0.016 | -0.005 ± 0.0028 | -0.015 ± 0.013 | -0.0105 ± 0.00071 | -0.014 ± 0.0099 | -0.0185 ± 0.039 | -0.002 ± 0.0099 | -0.0155 ± 0.023 | -0.0325 ± 0.037 | -0.037 ± 0.02 | 0.012 ± 0.0057 | 0.006 ± 0.0028 | 0.01 ± 0.0028 | 0.012 ± 0.014 | -0.016 ± 0.0042 | 0.013 ± 0.021
10 | KF3CT:MMP-9 | 0.0085 ± 0.0064 | -0.005 ± 0.011 | 0.012 ± 0.011 | -0.0395 ± 0.028 | -0.029 ± 0.018 | 0.002 | -0.0005 ± 0.00071 | 0.0035 ± 0.00071 | -0.0195 ± 0.033 | -0.0205 ± 0.05 | -0.028 ± 0.034 | -0.0045 ± 0.037 | -0.027 ± 0.041 | -0.0375 ± 0.012 | -0.0255 ± 0.00071 | -0.0105 ± 0.012 | 0.0085 ± 0.0092 | 0.0025 ± 0.0035 | 0.0065 ± 0.005
